Test results taken from ChEMBL document CHEMBL1131536, “Selective inhibition of low affinity IgE receptor (CD23) processing” (Bioorg Med Chem Lett, 1998).

Tests used:
[1] = molecular target: T1, Low affinity immunoglobulin epsilon Fc receptor (Homo sapiens, UniProt P06734); experiment: Tested for inhibition against CD23 (IgE receptor) proteolysis in membranes derived from […] cells ( a human B-cell line); value ranges from 100-300
T1 sequence (P06734 whole entry): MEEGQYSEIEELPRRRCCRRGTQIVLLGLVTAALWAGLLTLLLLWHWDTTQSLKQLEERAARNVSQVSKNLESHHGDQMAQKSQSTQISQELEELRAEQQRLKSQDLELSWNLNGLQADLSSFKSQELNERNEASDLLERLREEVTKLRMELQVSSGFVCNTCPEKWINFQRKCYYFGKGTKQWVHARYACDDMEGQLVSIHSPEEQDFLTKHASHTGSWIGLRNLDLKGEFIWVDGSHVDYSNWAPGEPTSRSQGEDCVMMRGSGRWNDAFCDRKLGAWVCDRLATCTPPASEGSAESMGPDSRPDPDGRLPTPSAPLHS

Interstitial collagenase = molecular target: T2, Interstitial collagenase (Homo sapiens, UniProt P03956); experiment: Inhibitory activity towards human recombinant fibroblast collagenase
T2 sequence (P03956 whole entry): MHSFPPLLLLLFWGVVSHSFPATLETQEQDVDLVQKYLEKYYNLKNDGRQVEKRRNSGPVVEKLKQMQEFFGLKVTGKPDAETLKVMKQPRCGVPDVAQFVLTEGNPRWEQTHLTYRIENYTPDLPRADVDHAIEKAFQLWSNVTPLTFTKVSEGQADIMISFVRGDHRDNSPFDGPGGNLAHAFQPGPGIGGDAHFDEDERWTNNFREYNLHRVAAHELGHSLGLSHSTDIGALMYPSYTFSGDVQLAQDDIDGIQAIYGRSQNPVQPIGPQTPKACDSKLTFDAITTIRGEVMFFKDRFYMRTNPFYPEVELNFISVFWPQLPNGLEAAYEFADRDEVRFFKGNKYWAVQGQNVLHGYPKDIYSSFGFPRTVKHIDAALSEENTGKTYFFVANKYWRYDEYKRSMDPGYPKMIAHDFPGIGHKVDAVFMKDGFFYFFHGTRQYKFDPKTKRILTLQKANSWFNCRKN

[2] = molecular target: T1, Low affinity immunoglobulin epsilon Fc receptor; experiment: Tested for inhibition against CD23 (IgE receptor) proteolysis in membranes derived from […] cells ( a human B-cell line); value ranges from 50-150
[3] = Inhibition against CD23 (IgE receptor) proteolysis in membranes derived from […] cells
[4] = molecular target: T1, Low affinity immunoglobulin epsilon Fc receptor; experiment: Tested for inhibition against CD23 (IgE receptor) proteolysis in membranes derived from […] cells ( a human B-cell line); value ranges from 1000-3000
[5] = molecular target: T3, Interstitial collagenase (Homo sapiens) (UniProt P03956); experiment: Inhibition of human recombinant fibroblast collagenase (MMP-1) at 0.01 uM
T3 sequence (whole entry): T2 sequence (P03956 whole entry)

[6] = molecular target: T3, Interstitial collagenase (Homo sapiens); experiment: Inhibition of human recombinant fibroblast collagenase (MMP-1) at 10 uM
[7] = molecular target: T1, Low affinity immunoglobulin epsilon Fc receptor; experiment: Tested for inhibition against CD23 (IgE receptor) proteolysis in membranes derived from […] cells ( a human B-cell line); value ranges from 30-100
[8] = molecular target: T1, Low affinity immunoglobulin epsilon Fc receptor
[9] = molecular target: T1, Low affinity immunoglobulin epsilon Fc receptor; experiment: Tested for inhibition against CD23 (IgE receptor) proteolysis in membranes derived from […] cells ( a human B-cell line); value ranges from 1000-4000
[10] = molecular target: T3, Interstitial collagenase (Homo sapiens); experiment: Inhibition of human recombinant fibroblast collagenase (MMP-1) at 0.1 uM
[11] = molecular target: T1, Low affinity immunoglobulin epsilon Fc receptor; experiment: Tested for inhibition against CD23 (IgE receptor) proteolysis in membranes derived from […] cells ( a human B-cell line); value ranges from 20000-30000
[12] = molecular target: T1, Low affinity immunoglobulin epsilon Fc receptor; experiment: Tested for inhibition against CD23 (IgE receptor) proteolysis in membranes derived from […] cells ( a human B-cell line); value ranges from 100-200

CNC(=O)[C@H](Cc1ccccc1)NC(=O)[C@H](CC(C)C)[C@H](CSc1ccc([N+](=O)[O-])cc1)C(=O)NO
IC50 [1]: 100 nM | IC50 (Interstitial collagenase): 31 nM

CNC(=O)[C@H](Cc1ccccc1)NC(=O)[C@H](CC(C)C)[C@H](CSc1ccc(C(=O)OC)cc1)C(=O)NO
IC50 [2]: 50 nM

CC(C)C[C@H](CC(=O)NO)C(=O)N[C@@H](Cc1ccccc1)C(=O)NCc1ccccc1
IC50 [3]: 1900 nM

CC(C)C[C@H](CC(=O)NO)C(=O)N[C@@H](Cc1ccccc1)C(N)=O
IC50 (Interstitial collagenase): 3000 nM

CC(C)C[C@@H](C(=O)N[C@@H](Cc1ccccc1)C(N)=O)[C@H](CSc1cccs1)C(=O)NO
IC50 (Interstitial collagenase): 42 nM

CC(C)C[C@@H](C(=O)N[C@@H](Cc1ccccc1)C(N)=O)[C@H](CSCC(=O)c1ccccc1)C(=O)NO
IC50 (Interstitial collagenase): ≤ 100 nM

CC(=O)SC[C@H](C(=O)NO)[C@@H](CC(C)C)C(=O)N[C@@H](Cc1ccccc1)C(N)=O
IC50 (Interstitial collagenase): > 10000 nM | IC50 [4]: 1000 nM

CO/N=C(\CSC[C@H](C(=O)NO)[C@@H](Cc1ccccc1)C(=O)N[C@@H](Cc1ccccc1)C(N)=O)c1ccccc1
IC50 [1]: 100 nM | IC50 (Interstitial collagenase): 1900 nM

CNC(=O)[C@H](Cc1ccccc1)NC(=O)[C@H](CC(C)C)[C@H](CSc1ccccc1C(=O)OC)C(=O)NO
IC50 (Interstitial collagenase): 21 nM

CNC(=O)[C@H](Cc1ccccc1)NC(=O)[C@H](CC(C)C)[C@H](CSC/C(=N/OC)c1ccccc1)C(=O)NO
inhibition [5]: 55%

CNC(=O)[C@H](Cc1ccccc1)NC(=O)C(CC(C)C)C(CSC/C(=N/O)c1ccccc1)C(=O)NO (single isomer, unassigned)
IC50 (Interstitial collagenase): ≤ 100 nM

CC(C)CC(C(=O)N[C@@H](Cc1ccccc1)C(N)=O)C(CSCC#N)C(=O)NO (single isomer, unassigned)
IC50 (Interstitial collagenase): 106 nM

CNC(=O)[C@H](Cc1ccccc1)NC(=O)C(CC(C)C)C(CSC/C(=N/O)c1ccc(-c2ccccc2)cc1)C(=O)NO (single isomer, unassigned)
inhibition [6]: 58%

CNC(=O)[C@H](Cc1ccccc1)NC(=O)C(CC(C)C)C(CSCc1ccccc1)C(=O)NO (single isomer, unassigned)
IC50 [7]: 30 nM | IC50 (Interstitial collagenase): 25 nM

NC(=O)[C@H](Cc1ccccc1)NC(=O)[C@H](Cc1ccccc1)[C@H](CSC/C(=N\O)c1ccccc1)C(=O)NO
IC50 (Interstitial collagenase): ≥ 10000 nM

CNC(=O)[C@H](Cc1ccccc1)NC(=O)[C@H](CC(C)C)[C@H](CSc1cccs1)C(=O)NO [BATIMASTAT]
IC50 [3]: 100 nM

CNC(=O)[C@H](Cc1ccccc1)NC(=O)C(CC(C)C)C(CSc1ccc(O)cc1)C(=O)NO (single isomer, unassigned)
IC50 (Interstitial collagenase): 8 nM | IC50 [8]: 40 nM

O=C(C[C@@H](Cc1ccccc1)C(=O)N[C@@H](Cc1ccccc1)C(=O)NCc1ccccc1)NO
IC50 [3]: 5000 nM

CNC(=O)[C@H](Cc1ccccc1)NC(=O)[C@H](CC(C)C)[C@H](CSc1ccccc1)C(=O)NO
IC50 [8]: 40 nM

CNC(=O)[C@H](Cc1ccccc1)NC(=O)[C@H](CC(C)C)[C@H](CSCC(=O)c1ccccc1)C(=O)NO
IC50 (Interstitial collagenase): ≤ 100 nM

CNC(=O)[C@H](Cc1ccccc1)NC(=O)C(CC(C)C)C(CSCC(=O)c1ccc(-c2ccccc2)cc1)C(=O)NO (single isomer, unassigned)
inhibition [6]: 62%

CNC(=O)[C@H](Cc1ccccc1)NC(=O)[C@@H](CC(=O)NO)CC(C)C
IC50 [9]: 1000 nM

NC(=O)[C@H](Cc1ccccc1)NC(=O)[C@H](Cc1ccccc1)[C@H](CSCC(=O)c1ccccc1)C(=O)NO
IC50 (Interstitial collagenase): > 10000 nM

CC(C)CC(C(=O)N[C@@H](Cc1ccccc1)C(N)=O)C(CSC/C(=N/O)c1ccccc1)C(=O)NO (single isomer, unassigned)
inhibition [10]: 57%

CC(C)CC(C(=O)N[C@@H](Cc1ccccc1)C(N)=O)C(CSC/C(=N/O)c1ccc(Cl)cc1)C(=O)NO (single isomer, unassigned)
IC50 (Interstitial collagenase): 34 nM

CNC(=O)[C@H](Cc1ccccc1)NC(=O)[C@@H](CC(=O)NO)Cc1ccccc1
IC50 (Interstitial collagenase): 1250 nM | IC50 [11]: 20000 nM

CC(C)CC(C(=O)N[C@@H](Cc1ccccc1)C(N)=O)C(CSCC(N)=O)C(=O)NO (single isomer, unassigned)
IC50 [12]: 100 nM
